Laboratory results taken from patent US11981661B2, “Heterocyclic compounds” (Hoffmann-La Roche Inc., priority 2020, dated 2024).

The compounds below were run against T1, MAGL (Homo sapiens, UniProt Q99685) (assay: 2-AG assay (MAGL inhibitory activity, hydrolysis of 2-arachidonoylglycerol followed by mass spectrometry)). Details: 50 pM MAGL, 8 μM 2-arachidonoylglycerol, 15 min preincubation, 30 min incubation at RT, concentration range 12.5 μM to 0.8 pM.
T1 sequence (Q99685 1-303): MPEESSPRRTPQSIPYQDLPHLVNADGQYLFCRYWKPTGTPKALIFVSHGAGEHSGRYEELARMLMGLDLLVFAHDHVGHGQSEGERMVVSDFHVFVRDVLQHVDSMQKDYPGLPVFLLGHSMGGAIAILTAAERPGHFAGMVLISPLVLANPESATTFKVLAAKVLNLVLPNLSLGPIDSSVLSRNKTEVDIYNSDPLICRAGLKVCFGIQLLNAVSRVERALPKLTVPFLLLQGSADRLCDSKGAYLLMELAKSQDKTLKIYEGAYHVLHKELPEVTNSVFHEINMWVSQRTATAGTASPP
Format: biochemical
Procedure: Compounds were profiled for MAGL inhibitory activity by determining the enzymatic activity by following the hydrolysis of the natural substrate 2-arachidonoylglycerol resulting in arachidonic acid, which can be followed by mass spectrometry. This assay is hereinafter abbreviated “2-AG assay”.
The 2-AG assay was carried out in 384 well assay plates (PP, Greiner Cat #784201) in a total volume of 20 μL. Compound dilutions were made in 100% DMSO (VWR Chemicals 23500.297) in a polypropylene plate in 3-fold dilution steps to give a final concentration range in the assay from 12.5 μM to 0.8 pM. 0.25 μL compound dilutions (100% DMSO) were added to 9 μL MAGL in assay buffer (50 mM TRIS (GIBCO, 15567-027), 1 mM EDTA (Fluka, 03690-100 mL), 0.01% (v/v) Tween. After shaking, the plate was incubated for 15 min at RT. To start the reaction, 10 μL 2-arachidonoylglycerol in assay buffer was added. The final concentrations in the assay was 50 pM MAGL and 8 μM 2-arachidonoylglyerol. After shaking and 30 min incubation at RT, the reaction was quenched by the addition of 40 μL of ACN containing 4 μM of d8-arachidonic acid. The amount of arachidonic acid was traced by an online SPE system (Agilent Rapidfire) coupled to a triple quadrupole mass spectrometer (Agilent 6460). A C18 SPE cartridge (G9205A) was used in an ACN/water liquid setup. The mass spectrometer was operated in negative electrospray mode following the mass transitions 303.1→259.1 for arachidonic acid and 311.1→267.0 for d8-arachidonic acid. The activity of the compounds was calculated based on the ratio of intensities [arachidonic acid/d8-arachidonic acid].

Row | SMILES | IC50
1 | O=C1N[C@H](CCC(=O)N2CC(c3ccc(-c4ccc(Cl)cc4Cl)cn3)C2)CO1 [Example 114, (4R)-4-[3-[3-[5-(2,4-Dichloro-phenyl)-2-pyridyl]azetidin-1-yl]-3-oxo-propyl]oxazolidin-2-one] | 0.18 nM
2 | CS(=O)(=O)c1cc(Cl)ccc1-c1ccc(C2CN(C(=O)CC[C@@H]3COC(=O)N3)C2)cn1 [Example 117, (4R)-4-[3-[3-[6-(4-Chloro-2-methylsulfonyl-phenyl)-3-pyridyl]azetidin-1-yl]-3-oxo-propyl]oxazolidin-2-one] | 10 nM
3 | CC1(CCC(=O)N2CC(c3ccc(Oc4cccc(Cl)c4)nc3)C2)CCC(=O)N1 (single isomer, unassigned) [Example 17, (−)- or (+)-5-[3-[3-[6-(3-Chlorophenoxy)-3-pyridyl]azetidin-1-yl]-3-oxo-propyl]-5-methyl-pyrrolidin-2-one] | ≥ 12500 nM
4 | CC(C)(C)Cn1nncc1-c1ccc(C2CN(C(=O)CC[C@@H]3COC(=O)N3)C2)cc1 [Example 81, (4R)-4-[3-[3-[4-[3-(2,2-Dimethyl-propyl)triazol-4-yl]phenyl]azetidin-1-yl]-3-oxo-propyl]oxazolidin-2-one] | 7 nM
5 | CN(CCc1cnn[nH]1)C(=O)N1CC(c2ccc(-c3ccc(S(C)(=O)=O)cc3Cl)cc2)C1 [Example 67, 3-[4-(2-Chloro-4-methylsulfonyl-phenyl)phenyl]-N-methyl-N-[2-(1H-triazol-5-yl)ethyl]azetidine-1-carboxamide] | 27 nM
6 | O=C1N[C@@H](CCC(=O)N2CC(OCc3ccc(C(F)(F)F)cc3F)C2)CO1 [Example 19, (4S)-4-[3-[3-[[2-Fluoro-4-(trifluoromethyl)phenyl]methoxy]azetidin-1-yl]-3-oxo-propyl]oxazolidin-2-one] | 1550 nM
7 | O=C1N[C@H](CCC(=O)N2CC(OCc3ccc(C(F)(F)F)cc3F)C2)CO1 [Example 20, (4R)-4-[3-[3-[[2-Fluoro-4-(trifluoromethyl)phenyl]methoxy]azetidin-1-yl]-3-oxo-propyl]oxazolidin-2-one] | 7 nM
8 | O=C1N[C@H](CCC(=O)N2CC(c3ccc(Oc4cnc(C(F)(F)F)cn4)cc3)C2)CO1 [Example 174, (4R)-4-[3-Oxo-3-[3-[4-[5-(trifluoromethyl)pyrazin-2-yl]oxyphenyl]azetidin-1-yl]propyl]oxazolidin-2-one] | 20 nM
9 | O=C1N[C@H](CCC(=O)N2CC3(CC(Oc4cncc(C(F)(F)F)n4)C3)C2)CO1 [Example 32, (4R)-4-[3-Oxo-3-[6-[6-(trifluoromethyl)pyrazin-2-yl]oxy-2-azaspiro[3.3]heptan-2-yl]propyl]oxazolidin-2-one] | 17 nM
10 | O=C1N[C@H](CCC(=O)N2CC(c3ccc(N4CC5(CCCO5)C4)nc3)C2)CO1 [Example 172, (4R)-4-[3-[3-[6-(5-Oxa-2-azaspiro[3.4]octan-2-yl)-3-pyridyl]azetidin-1-yl]-3-oxo-propyl]oxazolidin-2-one] | 827 nM
11 | CN(c1ccccc1)c1ccc(C2CN(C(=O)CC[C@@H]3COC(=O)N3)C2)cn1 [Example 93, (4R)-4-[3-[3-[6-(N-Methyl-anilino)-3-pyridyl]azetidin-1-yl]-3-oxo-propyl]oxazolidin-2-one] | 173 nM
12 | O=C(CCCc1cnn[nH]1)N1CC(c2ccc(Oc3ccc(OC(F)(F)F)cc3)nc2)C1 [Example 42, 4-(1H-Triazol-5-yl)-1-[3-[6-[4-(trifluoro-methoxy)phenoxy]-3-pyridyl]azetidin-1-yl]butan-1-one] | 218 nM
13 | CC(C)(C)c1ccc(C2CN(C(=O)CCC3CCC(=O)N3)C2)cc1 (single isomer, unassigned; (-)) [Example 3, (−)-5-[3-[3-(4-tert-Butylphenyl)azetidin-1-yl]-3-oxo-propyl]pyrrolidin-2-one] | 273 nM
14 | O=C(CCc1cnn[nH]1)N1CC(OCc2ccc(C(F)(F)F)cc2F)C1 [Example 36, 1-(3-((2-Fluoro-4-(trifluoromethyl)benzyl)oxy)azetidin-1-yl)-3-(1H-1,2,3-triazol-5-yl)propan-1-one] | 4030 nM
15 | CS(=O)(=O)c1ccc(-c2ccc(C3CN(C(=O)CC[C@@H]4COC(=O)N4)C3)cn2)c(Cl)c1 [Example 116, (4R)-4-[3-[3-[6-(2-Chloro-4-methylsulfonyl-phenyl)-3-pyridyl]azetidin-1-yl]-3-oxo-propyl]oxazolidin-2-one] | 160 nM
16 | O=C1N[C@H](CCC(=O)N2CC(c3ccc(N4CCC(C(F)(F)F)C4)cn3)C2)CO1 (stereo partly drawn) [Example 103, (4R)-4-[3-Oxo-3-[3-[5-[3-(trifluoro-methyl)pyrrolidin-1-yl]-2-pyridyl]azetidin-1-yl]propyl]oxazolidin-2-one] | 54 nM
17 | O=C1N[C@H](CCC(=O)N2CC(c3cccc(C4(C(F)(F)F)CC4)c3)C2)CO1 [Example 109, (4R)-4-[3-Oxo-3-[3-[3-[1-(trifluoromethyl)cyclopropyl]phenyl]azetidin-1-yl]propyl]oxazolidin-2-one] | 39 nM
18 | O=C1N[C@H](CCC(=O)N2CC(c3ccc(Oc4nccc(C5CC5)n4)cc3)C2)CO1 [Example 80, (4R)-4-[3-[3-[4-(4-Cyclopropyl-pyrimidin-2-yl)oxyphenyl]azetidin-1-yl]-3-oxo-propyl] oxazolidin-2-one] | 27 nM
19 | O=C1CCC(CCC(=O)N2CC(c3ccc(C4(C(F)(F)F)CC4)cc3)C2)N1 (single isomer, unassigned; (+)) [Example 6, (+)-5-[3-Oxo-3-[3-[4-[1-(trifluoromethyl)cyclopropyl]phenyl]azetidin-1-yl]propyl]pyrrolidin-2-one] | 3 nM
20 | O=C1N[C@H](CCC(=O)N2CC3(CCC(Cc4ccc(C(F)(F)F)nc4)C3)C2)CO1 (stereo partly drawn) [Example 198, (4R)-4-[3-Oxo-3-[6-[[6-(trifluoro-methyl)-3-pyridyl]methyl]-2-azaspiro[3.4]octan-2-yl]propyl]oxazolidin-2-one] | 73 nM
21 | O=C1CCC(CCC(=O)N2CC(c3ccc(CC(F)(F)F)cc3)C2)N1 (single isomer, unassigned) [Example 8, (+)- or (−)-5-[3-Oxo-3-[3-[4-(2,2,2-trifluoroethyl)phenyl]azetidin-1-yl]propyl]pyrrolidin-2-one] | 26 nM
22 | O=C1N[C@H](CCC(=O)N2CC(c3ccc(S(=O)(=O)C(F)(F)F)cc3)C2)CO1 [Example 76, (4R)-4-[3-Oxo-3-[3-[4-(trifluoro-methylsulfonyl)phenyl]azetidin-1-yl]propyl]oxazolidin-2-one] | 81 nM
23 | NS(=O)(=O)c1ccccc1CN1CC2(C1)CN(C(=O)CC[C@@H]1COC(=O)N1)C2 [Example 153, 2-[[2-[3-[(4R)-2-Oxooxazolidin-4-yl]propanoyl]-2,6-diazaspiro[3.3]heptan-6-yl]methyl]benzene-sulfonamide] | 2330 nM
24 | CC(CCc1cnn[nH]1)C(=O)N1CC(c2ccc(C3(C(F)(F)F)CC3)cc2)C1 (centres unmarked) [Example 68, 2-Methyl-4-(1H-triazol-5-yl)-1-[3-[4-[1-(trifluoromethyl)cyclopropyl]phenyl]azetidin-1-yl]butan-1-one] | 59 nM
25 | O=C1NCC(CCC(=O)N2CC(c3ccc(C4(C(F)(F)F)CC4)cc3)C2)N1 (centres unmarked) [Example 214, 4-[3-Oxo-3-[3-[4-[1-(trifluoromethyl)cyclopropyl]phenyl]azetidin-1-yl]propyl]imidazolidin-2-one] | 157 nM
26 | O=C1N[C@H](CCC(=O)N2CC(c3ccc([C@H]4C[C@H](C(F)(F)F)C4)nc3)C2)CO1 [Example 203, Trans-(4R)-4-[3-Oxo-3-[3-[6-[3-(trifluoromethyl)cyclobutyl]-3-pyridyl]azetidin-1-yl]propyl]oxazolidin-2-one] | 75 nM
27 | O=C1N[C@H](CCC(=O)N2CC(c3ncc(N4CCC(C(F)(F)F)C4)cn3)C2)CO1 (stereo partly drawn) [Example 106, (4R)-4-[3-Oxo-3-[3-[5-[3-(trifluoro-methyl)pyrrolidin-1-yl]pyrimidin-2-yl]azetidin-1-yl]propyl]oxazolidin-2-one] | 729 nM
28 | O=C1N[C@H](CCC(=O)N2CC(c3ccc([C@H]4C[C@@H](C(F)(F)F)C4)nc3)C2)CO1 [Example 202, Cis-(4R)-4-[3-Oxo-3-[3-[6-[3-(trifluoromethyl)cyclobutyl]-3-pyridyl]azetidin-1-yl]propyl]oxazolidin-2-one] | 37 nM
29 | O=C(OCCc1cnn[nH]1)N1CC(OCc2ccc(C(F)(F)F)cc2F)C1 [Example 63, 2-(1H-Triazol-5-yl)ethyl 3-[[2-fluoro-4-(trifluoro-methyl)phenyl]methoxy]azetidine-1-carboxylate] | 19 nM
